Laboratory results as given in the supplement of paper PMC10627819.

Experiments:
Test in all cases: Bliss interaction score (quartile over a dose matrix) (fitness difference); higher = more antagonism (negative = synergy)
S. aureus DSM 20231 = system: S. aureus DSM 20231
Summary of the method: (§1)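 Fitness here means normalised growth, inferred for single drugs from the combination data. Growth was OD595 at entry into stationary phase, divided by the plate's robust no-drug mean and capped at 1. The Bliss score is observed minus expected fitness, with the expectation being the product, and its quartiles span technical, biological and donor/recipient replicates.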

S. pneumoniae D39V = system: S. pneumoniae D39V
Summary of the method: as §1

S. aureus Newman = system: S. aureus Newman
Summary of the method: as §1

B. subtilis 168 = system: B. subtilis 168
Summary of the method: as §1
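Also: first quartile when negative (synergy) and third quartile when positive (antagonism).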

Row | Structure (SMILES) | Bliss interaction score (S. aureus DSM 20231) | Bliss interaction score (S. pneumoniae D39V) | Bliss interaction score (S. aureus Newman) | Bliss interaction score (B. subtilis 168) | Bliss interaction score (S. aureus DSM 20231; main component drawn) | Bliss interaction score (S. pneumoniae D39V; main component drawn) | Bliss interaction score (S. aureus Newman; main component drawn) | Bliss interaction score (B. subtilis 168; main component drawn)
1 | C[C@H]1c2cccc(O)c2C(=O)C2=C(O)[C@]3(O)C(=O)C(C(N)=O)=C(O)[C@@H](N(C)C)[C@@H]3[C@@H](O)[C@@H]21 [Doxycycline] + CN[C@H](CC(C)C)C(=O)N[C@H]1C(=O)N[C@@H](CC(N)=O)C(=O)N[C@H]2C(=O)N[C@H]3C(=O)N[C@H](C(=O)N[C@H](C(=O)O)c4cc(O)cc(O)c4-c4cc3ccc4O)[C@H](O[C@H]3C[C@](C)(N)[C@@H](O)[C@H](C)O3)c3ccc(c(Cl)c3)Oc3cc2cc(c3O[C@@H]2O[C@H](CO)[C@@H](O)[C@H](O)[C@H]2O[C@H]2C[C@](C)(NCc3ccc(-c4ccc(Cl)cc4)cc3)[C@@H](O)[C@H](C)O2)Oc2ccc(cc2Cl)[C@H]1O [Oritavancin] | -0.0271 | 0.0456 | 0.0145 | 0.0303 |  |  |  | 
2 | CC(=O)Oc1ccccc1C(=O)O [Acetylsalicylicacid] + O=C(O)[C@H]1/C(=C/CO)O[C@@H]2CC(=O)N21 [Clavulanic] | -0.553 | 0.0345 | 0.0986 | 0.0831 |  |  |  | 
3 | CC(=O)Oc1ccccc1C(=O)O [Acetylsalicylicacid] + C[C@H]1c2cccc(O)c2C(=O)C2=C(O)[C@]3(O)C(=O)C(C(N)=O)=C(O)[C@@H](N(C)C)[C@@H]3[C@@H](O)[C@@H]21 [Doxycycline] | -0.0455 | 0.1 | 0.0416 | -0.164 |  |  |  | 
4 | CO/N=C(\C(=O)N[C@@H]1C(=O)N2C(C(=O)O)=C(COC(C)=O)CS[C@H]12)c1csc(N)n1 [Cefotaxime] + O=C(O)c1cn(C2CC2)c2cc(N3CCNCC3)c(F)cc2c1=O [Ciprofloxacin] | -0.0413 | 0.154 | 0.0294 | -0.144 |  |  |  | 
5 | CO/N=C(\C(=O)N[C@@H]1C(=O)N2C(C(=O)O)=C(COC(C)=O)CS[C@H]12)c1csc(N)n1 [Cefotaxime] + CN(C)[C@@H]1C(O)=C(C(N)=O)C(=O)[C@@]2(O)C(O)=C3C(=O)c4c(O)ccc(Cl)c4[C@@](C)(O)[C@H]3C[C@@H]12 [Clortetracycline] | 0.0917 | 0.0665 | 0.0483 | 0.0481 |  |  |  | 
6 | CC(=O)Oc1ccccc1C(=O)O [Acetylsalicylicacid] + N[C@@H]1CONC1=O [CycloserineD] | 0.0689 | 0.146 | -0.115 | 0.221 |  |  |  | 
7 | CN(C)[C@@H]1C(O)=C(C(N)=O)C(=O)[C@@]2(O)C(O)=C3C(=O)c4c(O)ccc(Cl)c4[C@@](C)(O)[C@H]3C[C@@H]12 [Clortetracycline] + CCC(C)C1C(=O)NC(=C)C(=O)NC(C(=O)NC(CSCC(C(=O)N1)NC(=O)/C(=C/C)/NC(=O)C(C(C)CC)N)C(=O)NC2C(SCC(NC(=O)CNC(=O)C3CCCN3C2=O)C(=O)NC(CCCCN)C(=O)NC4C(SCC(NC(=O)CNC(=O)C(NC(=O)C(NC(=O)C(NC(=O)CNC4=O)C)CC(C)C)CCSC)C(=O)NC(CC(=O)N)C(=O)NC(CCSC)C(=O)NC(CCCCN)C(=O)NC5C(SCC6C(=O)NC(C(=O)NC(CSC(C(C(=O)N6)NC(=O)C(NC5=O)C)C)C(=O)NC(CO)C(=O)NC(C(C)CC)C(=O)NC(CC7=CN=CN7)C(=O)NC(C(C)C)C(=O)NC(=C)C(=O)NC(CCCCN)C(=O)O)CC8=CN=CN8)C)C)C)CC(C)C [Nisin] |  |  |  |  | 0.0616 | -0.122 | 0.0486 | 0.0718
8 | O=C(O)c1cn(C2CC2)c2cc(N3CCNCC3)c(F)cc2c1=O [Ciprofloxacin] + Oc1cc(Cl)ccc1Oc1ccc(Cl)cc1Cl [Triclosan] | 0.0355 | 0.0508 | -0.0217 | -0.0391 |  |  |  | 
9 | N#CC(C#N)=NNc1cccc(Cl)c1 [CCCP] + O=C(N[C@H](CO)[C@H](O)c1ccc([N+](=O)[O-])cc1)C(Cl)Cl [Chloramphenicol] | -0.0344 | -0.0866 | 0.076 | -0.0662 |  |  |  | 
10 | CC(=O)Oc1ccccc1C(=O)O [Acetylsalicylicacid] + CC[C@H]1OC(=O)[C@H](C)[C@@H](O[C@H]2C[C@@](C)(OC)[C@@H](O)[C@H](C)O2)[C@H](C)[C@@H](O[C@@H]2O[C@H](C)C[C@H](N(C)C)[C@H]2O)[C@](C)(O)C[C@@H](C)CN(C)[C@H](C)[C@@H](O)[C@]1(C)O [Azithromycin] | 0.179 | 0.0486 | 0.105 | 0.153 |  |  |  | 
11 | CC(=O)Oc1ccccc1C(=O)O [Acetylsalicylicacid] + Cn1nnc(-c2ccc(-c3ccc(N4C[C@H](CO)OC4=O)cc3F)cn2)n1 [Tedizolid] | -0.124 | 0.0802 | 0.0641 | -0.184 |  |  |  | 
12 | CC(=O)Oc1ccccc1C(=O)O [Acetylsalicylicacid] + COc1cc(Cc2cnc(N)nc2N)cc(OC)c1OC [Trimethoprim] | -0.0672 | -0.163 | 0.0981 | 0.123 |  |  |  | 
13 | CO/N=C(\C(=O)N[C@@H]1C(=O)N2C(C(=O)O)=C(COC(N)=O)CS[C@H]12)c1ccco1 [Cefuroxime] + CN[C@H](CC(C)C)C(=O)N[C@H]1C(=O)N[C@@H](CC(N)=O)C(=O)N[C@H]2C(=O)N[C@H]3C(=O)N[C@H](C(=O)N[C@H](C(=O)O)c4cc(O)cc(O)c4-c4cc3ccc4O)[C@H](O[C@H]3C[C@](C)(N)[C@@H](O)[C@H](C)O3)c3ccc(c(Cl)c3)Oc3cc2cc(c3O[C@@H]2O[C@H](CO)[C@@H](O)[C@H](O)[C@H]2O[C@H]2C[C@](C)(NCc3ccc(-c4ccc(Cl)cc4)cc3)[C@@H](O)[C@H](C)O2)Oc2ccc(cc2Cl)[C@H]1O [Oritavancin] | -0.0743 | 0.0536 | -0.103 | -0.0309 |  |  |  | 
14 | N#CC(C#N)=NNc1cccc(Cl)c1 [CCCP] + CCN(CC)CCOC(=O)c1ccc(N)cc1 [Procaine] | -0.0522 | 0.0668 | -0.0249 | 0.0328 |  |  |  | 
15 | COc1cccc2c1C(=O)c1c(O)c3c(c(O)c1C2=O)C[C@@](O)(C(=O)CO)C[C@@H]3O[C@H]1C[C@H](N)[C@H](O)[C@H](C)O1 [Doxorubicin] + CC1(C)S[C@@H]2[C@H](NC(=O)Cc3ccccc3)C(=O)N2[C@H]1C(=O)O [PenicillinG] | 0.0914 | 0.0966 | -0.0818 | 0.0777 |  |  |  | 
16 | CC(=O)Oc1ccccc1C(=O)O [Acetylsalicylicacid] + O=C(N[C@H](CO)[C@H](O)c1ccc([N+](=O)[O-])cc1)C(Cl)Cl [Chloramphenicol] | -0.0904 | 0.115 | 0.0794 | 0.0772 |  |  |  | 
17 | CN(C)[C@@H]1C(O)=C(C(N)=O)C(=O)[C@@]2(O)C(O)=C3C(=O)c4c(O)ccc(Cl)c4[C@@](C)(O)[C@H]3C[C@@H]12 [Clortetracycline] + CN(N=O)C(=O)N[C@@H](C=O)[C@@H](O)[C@H](O)[C@H](O)CO [Streptozotocin] | 0.0625 | -0.0534 | 0.0347 | 0.073 |  |  |  | 
18 | CC(=O)Oc1ccccc1C(=O)O [Acetylsalicylicacid] + CN[C@H](CC(C)C)C(=O)N[C@H]1C(=O)N[C@@H](CC(N)=O)C(=O)N[C@H]2C(=O)N[C@H]3C(=O)N[C@H](C(=O)N[C@H](C(=O)O)c4cc(O)cc(O)c4-c4cc3ccc4O)[C@H](O[C@H]3C[C@](C)(N)[C@@H](O)[C@H](C)O3)c3ccc(c(Cl)c3)Oc3cc2cc(c3O[C@@H]2O[C@H](CO)[C@@H](O)[C@H](O)[C@H]2O[C@H]2C[C@](C)(NCc3ccc(-c4ccc(Cl)cc4)cc3)[C@@H](O)[C@H](C)O2)Oc2ccc(cc2Cl)[C@H]1O [Oritavancin] | 0.0533 | 0.071 | 0.086 | -0.0215 |  |  |  | 
19 | CN(C)[C@@H]1C(O)=C(C(N)=O)C(=O)[C@@]2(O)C(O)=C3C(=O)c4c(O)ccc(Cl)c4[C@@](C)(O)[C@H]3C[C@@H]12 [Clortetracycline] + N[C@@H]1CONC1=O [CycloserineD] | -0.118 | 0.199 | 0.0727 | 0.0921 |  |  |  | 
20 | CN(C)[C@@H]1C(O)=C(C(N)=O)C(=O)[C@@]2(O)C(O)=C3C(=O)c4c(O)ccc(Cl)c4[C@@](C)(O)[C@H]3C[C@@H]12 [Clortetracycline] + Cc1ncc([N+](=O)[O-])n1CCO [Metronidazole] | 0.0551 | 0.104 | 0.0714 | 0.141 |  |  |  | 
21 | CN(C)[C@@H]1C(O)=C(C(N)=O)C(=O)[C@@]2(O)C(O)=C3C(=O)c4c(O)ccc(Cl)c4[C@@](C)(O)[C@H]3C[C@@H]12 [Clortetracycline] + Clc1ccc(COC(Cn2ccnc2)c2ccc(Cl)cc2Cl)c(Cl)c1 [Miconazole] | 0.0511 | 0.0793 | 0.0716 | 0.0788 |  |  |  | 
22 | CO/N=C(\C(=O)N[C@@H]1C(=O)N2C(C(=O)O)=C(COC(N)=O)CS[C@H]12)c1ccco1 [Cefuroxime] + CN(C)[C@@H]1C(O)=C(C(N)=O)C(=O)[C@@]2(O)C(O)=C3C(=O)c4c(O)ccc(Cl)c4[C@@](C)(O)[C@H]3C[C@@H]12 [Clortetracycline] | -0.269 | 0.112 | -0.0677 | -0.0786 |  |  |  | 
23 | CO/N=C(\C(=O)N[C@@H]1C(=O)N2C(C(=O)O)=C(COC(N)=O)CS[C@H]12)c1ccco1 [Cefuroxime] + CCC[C@@H]1C[C@@H](C(=O)N[C@@H]([C@H]2O[C@H](SC)[C@H](O)[C@@H](O)[C@H]2O)[C@H](C)Cl)N(C)C1 [Clindamycin] | -0.156 | 0.0539 | -0.0892 | -0.048 |  |  |  | 
24 | N#CC(C#N)=NNc1cccc(Cl)c1 [CCCP] + COc1c(N2C[C@@H]3CCCN[C@@H]3C2)c(F)cc2c(=O)c(C(=O)O)cn(C3CC3)c12 [Moxifloxacin] | -0.0373 | 0.0433 | -0.0686 | 0.0233 |  |  |  | 
25 | N#CC(C#N)=NNc1cccc(Cl)c1 [CCCP] + Cc1onc(-c2ccccc2)c1C(=O)N[C@@H]1C(=O)N2[C@@H]1SC(C)(C)[C@@H]2C(=O)O [Oxacillin] | 0.0876 | 0.12 | -0.0755 | 0.0476 |  |  |  | 
26 | COc1cccc2c1C(=O)c1c(O)c3c(c(O)c1C2=O)C[C@@](O)(C(=O)CO)C[C@@H]3O[C@H]1C[C@H](N)[C@H](O)[C@H](C)O1 [Doxorubicin] + Oc1cc(Cl)ccc1Oc1ccc(Cl)cc1Cl [Triclosan] | -0.0295 | -0.0416 | -0.0426 | -0.0317 |  |  |  | 
27 | CN(C)[C@@H]1C(O)=C(C(N)=O)C(=O)[C@@]2(O)C(O)=C3C(=O)c4c(O)ccc(Cl)c4[C@@](C)(O)[C@H]3C[C@@H]12 [Clortetracycline] + C[C@H]1c2cccc(O)c2C(=O)C2=C(O)[C@]3(O)C(=O)C(C(N)=O)=C(O)[C@@H](N(C)C)[C@@H]3[C@@H](O)[C@@H]21 [Doxycycline] | -0.0625 | -0.0483 | -0.0257 | -0.0687 |  |  |  | 
28 | N#CC(C#N)=NNc1cccc(Cl)c1 [CCCP] + CCCCCCCCCC(=O)N[C@@H]1[C@H]([C@@H]([C@H](O[C@H]1OC2=C3C=C4C=C2OC5=C(C=C(C=C5)[C@H]([C@H]6C(=O)N[C@@H](C7=C(C(=CC(=C7)O)OC8[C@H]([C@H]([C@@H]([C@H](O8)CO)O)O)O)C9=C(C=CC(=C9)[C@H](C(=O)N6)NC(=O)[C@@H]4NC(=O)[C@@H]1C2=CC(=CC(=C2)OC2=C(C=CC(=C2)[C@H](C(=O)N[C@H](CC2=CC(=C(O3)C=C2)Cl)C(=O)N1)N)O)O)O)C(=O)O)O[C@H]1[C@@H]([C@H]([C@@H]([C@H](O1)CO)O)O)NC(=O)C)Cl)CO)O)O [Teicoplanin] |  |  |  |  | 0.0772 | 0.096 | -0.0483 | 0.17
29 | N#CC(C#N)=NNc1cccc(Cl)c1 [CCCP] + CN(C)C(=O)C(CCN1CCC(O)(c2ccc(Cl)cc2)CC1)(c1ccccc1)c1ccccc1 [Loperamide] | -0.0407 | -0.227 | 0.0942 | 0.0251 |  |  |  | 
30 | CO/N=C(\C(=O)N[C@@H]1C(=O)N2C(C(=O)O)=C(COC(N)=O)CS[C@H]12)c1ccco1 [Cefuroxime] + CO[C@H]1/C=C/O[C@@]2(C)Oc3c(C)c(O)c4c(O)c(c(/C=N/N5CCN(C)CC5)c(O)c4c3C2=O)NC(=O)/C(C)=C\C=C\[C@H](C)[C@H](O)[C@@H](C)[C@@H](O)[C@@H](C)[C@H](OC(C)=O)[C@@H]1C [Rifampicin] | 0.109 | 0.102 | 0.0557 | 0.0741 |  |  |  | 
